According to patent publication US6156790A, “C-10 carbon-substituted artemisinin-like trioxane compounds having antimalarial, antiproliferative and antitumor activities” (priority 1997, dated 2000):
Entries after “also recorded” stand apart in the source; their conditions may differ. Read-outs that look alike come from different tables or passages of the source.

Columns and labels:
[1] = test system: A498; test: cells; format: cell-based; conditions: Homo sapiens; for CC50: read-out: Log10 LC50 (converted)
[2] = test system: A549/ATCC; test: NCI 60 cell line screen (SRB), non-small cell lung cancer; format: cell-based; conditions: Homo sapiens; for CC50: read-out: Log10 LC50 (converted); for IC (TGI): read-out: Log10 TGI (converted)
[3] = test system: HCT-15; test: cells; format: cell-based; conditions: Homo sapiens, HCT-15
[4] = test system: SK-MEL-2; test: cells; format: cell-based; conditions: Homo sapiens; for CC50: read-out: Log10 LC50 (converted); for IC (TGI): read-out: Log10 TGI (converted)
[5] = test system: M14; test: NCI 60 cell line screen (SRB), melanoma; conditions: Homo sapiens; for IC (TGI): M14, read-out: Log10 TGI
[6] = test system: EKVX; test: NCI 60 cell line screen (SRB), non-small cell lung cancer; format: cell-based; conditions: Homo sapiens; for CC50: read-out: Log10 LC50 (converted); for IC (TGI): read-out: Log10 TGI (converted)
[7] = test system: HCT-116; test: cells; format: cell-based; conditions: Homo sapiens; for CC50: read-out: Log10 LC50 (converted); for IC (TGI): read-out: Log10 TGI (converted)
[8] = test system: 60 cell line panel; test: NCI 60 cell line screen, whole panel; format: cell-based
[9] = test system: U251; test: cells; format: cell-based; conditions: Homo sapiens; for CC50: U-251, read-out: Log10 LC50 (converted); for IC (TGI): U-251, read-out: Log10 TGI (converted)
[10] = test system: TK-10; test: cells; format: cell-based; conditions: Homo sapiens
[11] = test system: HT29; test: cells; format: cell-based; conditions: Homo sapiens, HT-29, read-out: Log10 TGI (converted)
[12] = test system: IGROVI; test: cells; conditions: 60 cell; for IC (TGI): read-out: Log10 TGI
[13] = test system: MOLT-4; test: cells; conditions: Homo sapiens; for GI50: MOLT-4, read-out: concentration for primary growth inhibition
Protocol: The screening assay is performed on a 96-well microtitre plates.
Dose response curves, shown in the above mentioned Figures, are obtained by exposing various cancer cell lines to compounds having a known concentration ([log10 M]), as discussed in detail above, and then plotting the percentage growth of each cell line for each concentration. […] As discussed previously, the five drug dilutions routinely tested range from 10^-4 to 10^-9 molar.

[14] = test system: K-562; test: cells; format: cell-based; conditions: Homo sapiens, K562, K-562
[15] = test system: SNB-75; test: cells; format: cell-based; conditions: Homo sapiens, read-out: Log10 TGI (converted)
[16] = test system: T-47D; test: cells; format: cell-based; conditions: Homo sapiens, T47D, T-47D
[17] = test system: NCI-H23; test: NCI 60 cell line screen (SRB), non-small cell lung cancer; format: cell-based; conditions: Homo sapiens; for IC (TGI): read-out: Log10 TGI (converted)
[18] = test system: PC-3; test: cells; format: cell-based; conditions: Homo sapiens, PC-3; for CC50: read-out: Log10 LC50 (converted)
[19] = test system: ACHN; test: cells; conditions: Homo sapiens; for CC50: read-out: Log10 LC50 (converted); for IC (TGI): read-out: Log10 TGI
[20] = test system: MDA-MB231/ATCC; test: cells; format: cell-based; conditions: Homo sapiens; for GI50: MDA-MB-231, read-out: Log10 GI50 (converted); for CC50: MDA-MB-231, read-out: Log10 LC50 (converted); for IC (TGI): MDA-MB-231, read-out: Log10 TGI (converted)
[21] = test system: KM12; test: cells; format: cell-based; conditions: Homo sapiens, read-out: Log10 TGI (converted)
[22] = test system: UO-31; test: NCI 60 cell line screen (SRB), renal cancer; format: cell-based; conditions: Homo sapiens; for IC (TGI): read-out: Log10 TGI (converted)
[23] = test system: HOP-62; test: cells; format: cell-based; conditions: Homo sapiens; for CC50: read-out: Log10 LC50 (converted); for IC (TGI): read-out: Log10 TGI (converted)
[24] = test system: MDA-N; test: cells; format: cell-based; conditions: Homo sapiens; for CC50: read-out: Log10 LC50 (converted); for IC (TGI): read-out: Log10 TGI (converted)
[25] = test system: OVCAR-8; test: NCI 60 cell line screen (SRB), ovarian cancer; format: cell-based; conditions: Homo sapiens; for CC50: read-out: Log10 LC50 (converted); for IC (TGI): read-out: Log10 TGI (converted)
[26] = test system: SR; test: cells; format: cell-based; conditions: Homo sapiens, read-out: Log10 TGI (converted)
[27] = test system: NCI-H226; test: NCI 60 cell line screen (SRB), non-small cell lung cancer; format: cell-based; conditions: Homo sapiens; for CC50: read-out: Log10 LC50 (converted); for IC (TGI): read-out: Log10 TGI (converted)
[28] = test system: BT-549; test: cells; format: cell-based; conditions: Homo sapiens; for GI50: read-out: Log10 GI50 (converted); for IC (TGI): read-out: Log10 TGI (converted)
[29] = test system: SNB-19; test: cells; format: cell-based; conditions: Homo sapiens
[30] = test system: SW-620; test: NCI 60 cell line screen (SRB), colon cancer; format: cell-based; conditions: Homo sapiens; for IC (TGI): read-out: Log10 TGI (converted)
[31] = test system: MCF7; test: cells; format: cell-based; conditions: Homo sapiens, MCF7; for CC50: read-out: Log10 LC50 (converted)
[32] = test system: RXF 393; test: cells; conditions: Homo sapiens; for GI50: RXF 393, read-out: Log10 GI50 (converted); for CC50: RXF 393, read-out: Log10 LC50 (converted)
[33] = test system: HOP-92; test: NCI 60 cell line screen (SRB), non-small cell lung cancer; format: cell-based; conditions: Homo sapiens; for CC50: read-out: Log10 LC50 (converted); for IC (TGI): read-out: Log10 TGI (converted)
[34] = test system: NCI-H460; test: cells; format: cell-based; conditions: Homo sapiens; for CC50: read-out: Log10 LC50 (converted)
[35] = test system: CCRF-CEM; test: NCI 60 cell line screen (SRB), leukemia; format: cell-based; conditions: Homo sapiens, read-out: Log10 TGI (converted)
[36] = read-out: Log10 GI50 (converted)
[37] = read-out: Log10 LC50 (converted)
[38] = MOLT-4, read-out: concentration for cytostasis
[39] = read-out: Log10 TGI (converted)

C[C@@H]1CC[C@H]2[C@@H](C)C(=O)O[C@@H]3O[C@@]4(C)CC[C@@H]1[C@]32OO4 [Artemisinin]
CC50 [1]: > 100 µM
GI50 [2, 36]: 67.6 µM
CC50 [2]: > 100 µM
IC (TGI) [2]: > 100 µM
CC50 [3, 37]: > 100 µM
CC50 [4]: > 100 µM
IC (TGI) [4]: > 100 µM
IC (TGI) [5]: > 100 µM
CC50 [6]: > 100 µM
IC (TGI) [6]: > 100 µM
CC50 [7]: > 100 µM
IC (TGI) [7]: > 100 µM
GI50 ([8]; 60 cell, panel, read-out: Log10 GI50 Delta (converted)): 85.1 µM
Log10 LC50 Delta ([8]; panel): -4.00
Log10 TGI Delta ([8]; panel): -4.00
Log10 TGI Range ([8]; panel): 0.06
CC50 [9]: > 100 µM
IC (TGI) [9]: > 100 µM
CC50 [10, 37]: > 100 µM
IC (TGI) [11]: > 100 µM
GI50 [12, 36]: 49 µM
IC (TGI) [12]: > 100 µM
CC50 ([13]; MOLT-4, read-out: Log10 LC50 (converted)): > 100 µM
IC (TGI) [13, 38]: > 100 µM
CC50 ([13]; MOLT-4, read-out: concentration for cytotoxicity): > 100 µM
GI50 [13]: > 100 µM
GI50 [14, 36]: 46.8 µM
CC50 [14, 37]: > 100 µM
IC (TGI) [15]: > 100 µM
CC50 [16, 37]: > 100 µM
IC (TGI) [17]: > 100 µM
GI50 [18, 36]: 67.6 µM
CC50 [18]: > 100 µM
CC50 [19]: > 100 µM
IC (TGI) [19]: > 100 µM
GI50 [20]: 63.1 µM
CC50 [20]: > 100 µM
IC (TGI) [20]: 100 µM
IC (TGI) [21]: > 100 µM
GI50 [22, 36]: 87.1 µM
CC50 [22, 37]: > 100 µM
IC (TGI) [22]: 100 µM
CC50 [23]: > 100 µM
IC (TGI) [23]: > 100 µM
CC50 [24]: > 100 µM
IC (TGI) [24]: > 100 µM
CC50 [25]: > 100 µM
IC (TGI) [25]: > 100 µM
IC (TGI) [26]: > 100 µM
CC50 [27]: > 100 µM
IC (TGI) [27]: > 100 µM
GI50 [28]: 87.1 µM
CC50 [28, 37]: > 100 µM
IC (TGI) [28]: 100 µM
CC50 [29, 37]: > 100 µM
CC50 [30, 37]: > 100 µM
IC (TGI) [30]: > 100 µM
CC50 [31]: > 100 µM
GI50 [32]: 83.2 µM
CC50 [32]: > 100 µM
CC50 [33]: > 100 µM
IC (TGI) [33]: > 100 µM
CC50 ([34]; NCI-H460): > 100 µM

C[C@H]1[C@@H](CC(=O)c2ccc(C(=O)C[C@H]3O[C@@H]4O[C@@]5(C)CC[C@H]6[C@H](C)CC[C@@H]([C@H]3C)[C@@]46OO5)cc2)O[C@@H]2O[C@@]3(C)CC[C@H]4[C@H](C)CC[C@@H]1[C@@]24OO3 [Dimer 21]
GI50 [1, 36]: 1.82 µM
CC50 [1]: 64.6 µM
IC (TGI) [1, 39]: 19.1 µM
CC50 [2]: 37.2 µM
IC (TGI) [2]: 13.5 µM
IC (TGI) [3, 39]: 24.5 µM
GI50 [4, 36]: 0.0389 µM
CC50 [4]: 25.1 µM
IC (TGI) [4]: 0.55 µM
GI50 ([5]; M14, read-out: Log10 GI50 (converted)): 1.26 µM
CC50 ([5]; M14, read-out: Log10 LC50 (converted)): 45.7 µM
IC (TGI) [5]: 17.8 µM
GI50 [6, 36]: 1.15 µM
CC50 [6]: > 100 µM
IC (TGI) [6]: 26.3 µM
CC50 [7]: 51.3 µM
IC (TGI) [7]: 12.6 µM
GI50 ([8]; 60 cell, mean over panel, read-out: Log10 GI50 MG MID (converted)): 0.0589 µM
IC (TGI) ([8]; 60 cell, mean over panel, read-out: Log10 TGI MG MID (converted)): 93300 µM
CC50 ([8]; Homo sapiens, 60 cell, mean over panel, read-out: Log10 LC50 MG MID (converted)): 64.6 µM
potency compared with artemisinin ([8]; Tables III, IV and V): more potent than artemisinin
potency compared with paclitaxel ([8]; Tables III, IV and V): in most instances are as potent and in some instances more potent than paclitaxel; also recorded: equivalent to and in many instances higher in potency than paclitaxel
Log10 TGI Range ([8]; panel): 4.00
CC50 [9]: 41.7 µM
IC (TGI) [9]: 17 µM
GI50 [10, 36]: 0.00288 µM
IC (TGI) [11]: 15.1 µM
IC (TGI) [12]: 12 µM
IC (TGI) ([13]; MOLT-4, read-out: Log10 TGI): 12.9 µM
IC (TGI) [13, 38]: ~100 µM
GI50 [13]: < 0.1 µM
IC (TGI) [15]: 34.7 µM
IC (TGI) [16, 39]: 2.57 µM
GI50 [17, 36]: 0.012 µM
IC (TGI) [17]: > 100 µM
CC50 [18]: 47.9 µM
IC (TGI) [18, 39]: 11.5 µM
GI50 [19, 36]: 0.0195 µM
CC50 [19]: > 100 µM
IC (TGI) [19]: 69.2 µM
GI50 [20]: 0.178 µM
CC50 [20]: 46.8 µM
IC (TGI) [20]: 16.2 µM
IC (TGI) [21]: 14.5 µM
IC (TGI) [22]: 57.5 µM
GI50 [23, 36]: 0.417 µM
CC50 [23]: 52.5 µM
IC (TGI) [23]: 17.4 µM
CC50 [24]: 39.8 µM
IC (TGI) [24]: 5.75 µM
CC50 [25]: 41.7 µM
IC (TGI) [25]: 12.3 µM
IC (TGI) [26]: > 100 µM
GI50 [27, 36]: 0.0832 µM
CC50 [27]: > 100 µM
IC (TGI) [27]: 28.2 µM
GI50 [28]: 0.263 µM
IC (TGI) [28]: 49 µM
GI50 [29, 36]: 0.537 µM
IC (TGI) [29, 39]: 41.7 µM
IC (TGI) [30]: 87.1 µM
IC (TGI) [35]: 45700 µM
CC50 [31]: 53.7 µM
IC (TGI) [31, 39]: 13.2 µM
GI50 [32]: 2.57 µM
CC50 [32]: 49 µM
IC (TGI) ([32]; RXF 393, read-out: Log10 TGI): 19.5 µM
GI50 [33, 36]: 0.0708 µM
CC50 [33]: 83.2 µM
IC (TGI) [33]: 17.4 µM
IC (TGI) ([34]; NCI-H460, read-out: Log10 TGI): > 100 µM
GI50 ([34]; NCI-H460, read-out: Log10 GI50 (converted)): 0.525 µM
CC50 ([34]; NCI-H460): > 100 µM
